Assay results published in PubChem BioAssay AID330 (DTP/NCI, 2004).
Values joined by “and” are separate entries in the source; they are usually repeats but may differ in a detail not shown here. Equal entries are not always repeated. Inconclusive results and toxic doses are left out.

Test system: P388 leukemia ip, CD2F1 mice, survival T/C
Assay: NCI In Vivo Anticancer Drug Screen. Data for tumor model P388 Leukemia (intraperitoneal) in CD2F1 (CDF1) mice
Conditions: endpoint: median survival time, higher = longer survival
Method in brief: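 Mice carrying the transplanted tumor received test compound or vehicle. Survival was recorded in each group, and the value is the treated-group measurement divided by that of the vehicle-treated control group.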

[1] = dose: 50.0 mg/kg/injection, schedule: Q01DX005 (ip), vehicle: Klucel (hydroxypropylcellulose) (HPC)
[2] = dose: 100.0 mg/kg/injection, schedule: Q01DX005 (ip), vehicle: Klucel (hydroxypropylcellulose) (HPC)
[3] = dose: 200.0 mg/kg/injection, schedule: Q01DX005 (ip), vehicle: Klucel (hydroxypropylcellulose) (HPC)
[4] = dose: 50.0 mg/kg/injection, schedule: Q01DX009 (ip), vehicle: saline
[5] = dose: 50.0 mg/kg/injection, schedule: Q01DX005 (ip), vehicle: saline
[6] = dose: 100.0 mg/kg/injection, schedule: Q01DX005 (ip), vehicle: saline
[7] = dose: 200.0 mg/kg/injection, schedule: Q01DX005 (ip), vehicle: saline
[8] = dose: 50.0 mg/kg/injection, schedule: Q01DX005 (ip), vehicle: saline with Tween-80
[9] = dose: 100.0 mg/kg/injection, schedule: Q01DX005 (ip), vehicle: saline with Tween-80
[10] = dose: 200.0 mg/kg/injection, schedule: Q01DX005 (ip), vehicle: saline with Tween-80
[11] = dose: 50.0 mg/kg/injection, schedule: Q01DX009 (ip), vehicle: saline with Tween-80
[12] = dose: 100.0 mg/kg/injection, schedule: Q01DX009 (ip), vehicle: saline with Tween-80
[13] = dose: 200.0 mg/kg/injection, schedule: Q01DX009 (ip), vehicle: saline with Tween-80
[14] = dose: 50.0 mg/kg/injection, schedule: Q01DX009 (ip), vehicle: Klucel (hydroxypropylcellulose) (HPC)
[15] = dose: 100.0 mg/kg/injection, schedule: Q01DX009 (ip), vehicle: Klucel (hydroxypropylcellulose) (HPC)
[16] = dose: 200.0 mg/kg/injection, schedule: Q01DX009 (ip), vehicle: Klucel (hydroxypropylcellulose) (HPC)
[17] = dose: 100.0 mg/kg/injection, schedule: Q01DX009 (ip), vehicle: saline
[18] = dose: 50.0 mg/kg/injection, schedule: Q01DX009 (ip), vehicle: suspension in saline
[19] = dose: 100.0 mg/kg/injection, schedule: Q01DX009 (ip), vehicle: suspension in saline
[20] = dose: 100.0 mg/kg/injection, schedule: Q01DX001 (ip), vehicle: saline with Tween-80
[21] = dose: 200.0 mg/kg/injection, schedule: Q01DX001 (ip), vehicle: saline with Tween-80

For `NC(Cc1ccc([N+](=O)[O-])cc1)C(=O)O` (centres undefined), the T/C (dose: 100.0 mg/kg/injection, schedule: Q01DX001 (ip), vehicle: saline) was 104 % of control, the T/C (dose: 100.0 mg/kg/injection, schedule: Q04DX003 (ip), vehicle: saline with Tween-80) was 104 % of control and the T/C (dose: 200.0 mg/kg/injection, schedule: Q01DX001 (ip), vehicle: saline) was 104 % of control. The T/C (dose: 200.0 mg/kg/injection, schedule: Q04DX003 (ip), vehicle: saline with Tween-80) was 100 % of control, the T/C (dose: 400.0 mg/kg/injection, schedule: Q01DX001 (ip), vehicle: saline) was 109 % of control and the T/C (dose: 400.0 mg/kg/injection, schedule: Q04DX003 (ip), vehicle: saline with Tween-80) was 100 % of control.
`Cc1cnc(Sc2ncccc2[N+](=O)[O-])[nH]c1=O` was tested, and the T/C [1] was 107 % of control, the T/C [2] was 93 % of control and the T/C [3] was 97 % of control.
`COC(=O)c1cc(-c2ccccc2)[nH]c1-c1ccccc1` was tested, and the T/C (dose: 12.5 mg/kg/injection, schedule: Q01DX009 (ip), vehicle: saline) was 105 % of control, the T/C (dose: 25.0 mg/kg/injection, schedule: Q01DX009 (ip), vehicle: saline) was 104 % of control and the T/C [4] was 102 % of control.
`CC(O)C1CCCCN1` (centres undefined) was tested, and the T/C [5] was 101 % of control, the T/C [6] was 101 % of control and the T/C [7] was 108 % of control.
For `COC(=O)c1c(O)c2c(c3c1OC(C)(C)CC3)OC(C)(C)CC2`, the T/C (dose: 60.0 mg/kg/injection, schedule: Q01DX005 (ip), vehicle: Klucel (hydroxypropylcellulose) (HPC)) was 93 % of control, the T/C (dose: 60.0 mg/kg/injection, schedule: Q01DX005 (ip), vehicle: saline with Tween-80) was 90 % of control and the T/C (dose: 120.0 mg/kg/injection, schedule: Q01DX005 (ip), vehicle: Klucel (hydroxypropylcellulose) (HPC)) was 92 % of control. For the same compound, the T/C (dose: 120.0 mg/kg/injection, schedule: Q01DX005 (ip), vehicle: saline with Tween-80) was 91 % of control and the T/C (dose: 240.0 mg/kg/injection, schedule: Q01DX005 (ip), vehicle: Klucel (hydroxypropylcellulose) (HPC)) was 90 % of control.
With `O=C(OC1C2C=CC1C1C3CCC(c4ccccc43)C21)c1ccc([N+](=O)[O-])cc1[N+](=O)[O-]` (centres undefined) the T/C (dose: 100.0 mg/kg/injection, schedule: Q04DX002 (ip), vehicle: saline) was 103 % of control, the T/C (dose: 200.0 mg/kg/injection, schedule: Q04DX002 (ip), vehicle: saline) was 99 % of control and the T/C (dose: 400.0 mg/kg/injection, schedule: Q04DX002 (ip), vehicle: saline) was 100 % of control.
`Nc1nc(N)c2[nH]c(N=Nc3ccc(N(CCO)CCO)cc3)nc2n1` was tested, and the T/C [8] was 106 % of control, the T/C [9] was 106 % of control and the T/C [10] was 108 % of control.
`Cc1cccc(-n2c(-c3ccc([N+](=O)[O-])cc3)csc2=NC(=O)c2cccc([N+](=O)[O-])c2)c1C` was tested, and the T/C [11] was 91 % of control, the T/C [12] was 87 % of control and the T/C [13] was 87 % of control.
`O=C(c1ccccc1)C(c1ccccc1)n1nccc1-c1ccccc1` (centres undefined) was tested, and the T/C [14] was 105 % of control, the T/C [15] was 105 % of control and the T/C [16] was 99 % of control.
With `CCOc1c(N=Nc2ccccc2[N+](=O)[O-])c(C)nn1C(N)=S` the T/C (dose: 15.0 mg/kg/injection, schedule: Q01DX005 (ip), vehicle: Klucel + Tween-80) was 100 % of control, the T/C (dose: 30.0 mg/kg/injection, schedule: Q01DX005 (ip), vehicle: Klucel + Tween-80) was 89 % of control and the T/C (dose: 60.0 mg/kg/injection, schedule: Q01DX005 (ip), vehicle: Klucel + Tween-80) was 86 % of control and 90 % of control.
For `CC1CCCC(C)N1C(=O)OCC12COC3(C)CCC(C)(OC1)N23` (centres undefined), the T/C (dose: 25.0 mg/kg/injection, schedule: Q01DX005 (ip), vehicle: saline) was 100 % of control, the T/C [1] was 95 % of control and the T/C [5] was 99 % of control and 100 % of control. The T/C [2] was 109 % of control, the T/C [6] was 104 % of control and 108 % of control and the T/C [3] was 109 % of control. The T/C [7] was 122 % of control and 96 % of control.
`CCCCCCCCCCCCCCCC[N+]1(CC)CCSCC1` was tested, and the T/C [4] was 100 % of control, the T/C [17] was 96 % of control and the T/C (dose: 200.0 mg/kg/injection, schedule: Q01DX009 (ip), vehicle: saline) was 100 % of control.
For `N/C(Cc1noc2ccc(F)cc12)=N\O`, the T/C [4] was 107 % of control and the T/C [17] was 107 % of control.
For `COc1nc(=O)n(C2C=CC(=O)O2)cc1F` (centres undefined), the T/C (dose: 20.0 mg/kg/injection, schedule: Q01DX009 (ip), vehicle: saline) was 158 % of control and 173 % of control, the T/C (dose: 40.0 mg/kg/injection, schedule: Q01DX009 (ip), vehicle: saline) was 174 % of control and 196 % of control and the T/C (dose: 80.0 mg/kg/injection, schedule: Q01DX009 (ip), vehicle: saline) was 102 % of control.
`Oc1c(Cl)cc(Cl)cc1CN1CCOCC1` was tested, and the T/C [18] was 89 % of control, the T/C [19] was 87 % of control and the T/C (dose: 200.0 mg/kg/injection, schedule: Q01DX009 (ip), vehicle: suspension in saline) was 98 % of control. For the same compound, the T/C (dose: 400.0 mg/kg/injection, schedule: Q01DX009 (ip), vehicle: suspension in saline) was 109 % of control.
With `COc1c2occc2c(S(=O)(=O)Cl)c2ccc(=O)oc12` the T/C [20] was 95 % of control, the T/C [21] was 109 % of control and the T/C (dose: 400.0 mg/kg/injection, schedule: Q01DX001 (ip), vehicle: saline with Tween-80) was 100 % of control.
In the case of `CSc1cccc(NC(=O)Oc2ccc(Br)cc2)c1`, the T/C [11] is reported as 91 % of control, the T/C [12] is reported as 93 % of control and the T/C [13] is reported as 101 % of control.
For `CC1CC(C)N(C)C(C)C1` (centres undefined), the T/C (dose: 15.0 mg/kg/injection, schedule: Q01DX005 (ip), vehicle: saline) was 103 % of control, the T/C (dose: 30.0 mg/kg/injection, schedule: Q01DX005 (ip), vehicle: saline) was 99 % of control and the T/C (dose: 60.0 mg/kg/injection, schedule: Q01DX005 (ip), vehicle: saline) was 104 % of control.
In the case of `CN(C)CC(CN(C)C)C(=O)/C=C/c1ccccc1`, the T/C (dose: 1.56 mg/kg/injection, schedule: Q01DX005 (ip), vehicle: saline) is reported as 99 % of control and the T/C (dose: 3.12 mg/kg/injection, schedule: Q01DX005 (ip), vehicle: saline) is reported as 107 % of control.
In the case of `O=C(Nc1ccc([N+](=O)[O-])cc1C(Sc1ccccc1)c1ccccc1)c1ccc([N+](=O)[O-])cc1` (centres undefined), the T/C [20] is reported as 94 % of control and the T/C [21] is reported as 87 % of control.
For `Clc1ccccc1C(=Nc1ccccc1)C(=Nc1ccccc1)c1ccccc1Cl`, the T/C (dose: 100.0 mg/kg/injection, schedule: Q04DX002 (ip), vehicle: Klucel (hydroxypropylcellulose) (HPC)) was 99 % of control, the T/C (dose: 200.0 mg/kg/injection, schedule: Q04DX002 (ip), vehicle: Klucel (hydroxypropylcellulose) (HPC)) was 102 % of control and the T/C (dose: 400.0 mg/kg/injection, schedule: Q04DX002 (ip), vehicle: Klucel (hydroxypropylcellulose) (HPC)) was 96 % of control.
In the case of `Cc1ccc(O)c(C(=NCCN=C(c2ccccc2)c2cc(C)ccc2O)c2ccccc2)c1`, the T/C [1] is reported as 103 % of control and 106 % of control and 98 % of control, the T/C [2] is reported as 100 % of control and 104 % of control and 118 % of control and the T/C [3] is reported as 100 % of control and 101 % of control and 121 % of control. The T/C (dose: 400.0 mg/kg/injection, schedule: Q01DX005 (ip), vehicle: Klucel (hydroxypropylcellulose) (HPC)) was 96 % of control.
For `CCOC(=O)C(O)Cc1cnc2ccccc2n1` (centres undefined), the T/C [8] was 108 % of control, the T/C [9] was 108 % of control and the T/C [10] was 100 % of control.
`CN(Cc1ccccc1)N=NCc1ccccc1` was tested, and the T/C (dose: 12.5 mg/kg/injection, schedule: Q01DX005 (ip), vehicle: saline with Tween-80) was 103 % of control, the T/C (dose: 25.0 mg/kg/injection, schedule: Q01DX005 (ip), vehicle: saline with Tween-80) was 115 % of control and the T/C [8] was 154 % of control.
With `CC(C)c1ccc(C2NC(C(=O)O)CS2)cc1` (centres undefined) the T/C [18] was 93 % of control and the T/C [19] was 90 % of control.
With `Cc1nnc2sc3c(Cl)c4nn5c(C)nnc5sc4c(Cl)c3nn12` the T/C (dose: 0.78 mg/kg/injection, schedule: Q01DX009 (ip), vehicle: saline with Tween-80) was 94 % of control, the T/C (dose: 1.56 mg/kg/injection, schedule: Q01DX009 (ip), vehicle: saline with Tween-80) was 97 % of control and the T/C (dose: 3.13 mg/kg/injection, schedule: Q01DX009 (ip), vehicle: saline with Tween-80) was 92 % of control.
For `O=S1(=O)CCN(C2CCCC2)CC1`, the T/C (dose: 25.0 mg/kg/injection, schedule: Q01DX009 (ip), vehicle: Klucel (hydroxypropylcellulose) (HPC)) was 94 % of control, the T/C [14] was 93 % of control and 95 % of control and the T/C [15] was 92 % of control and 95 % of control. For the same compound, the T/C [16] was 99 % of control and 94 % of control.
